How the values were obtained:
[1] = biological target: HIV reverse transcriptase (Human immunodeficiency virus type 1 group M subtype B, UniProt P04585); experiment: HIV Reverse Transcriptase Assay (IC50); format: biochemical; details: assay of Example 67; 1 mM of ATP added to the reaction mixture
Protocol: (§1) Diluted solutions of stock solutions of compounds of Formula I in DMSO are prepared in assay buffer in Eppendorf tubes 16 h prior to their use in the biological assay, using a minimal supplementary volume of 75 μL of assay buffer in addition to the volume required in the assay. The samples are vortexed for 10 min at RT and incubated for 16 h at 4° C. The equilibrated solutions are centrifuged at 16 000 g for 5 min in a centrifuge equipped with an internal chiller, which is pre-equilibrated at 4° C., and the supernatant is collected. The portion of supernatant required for the serial dilutions in the biological assay is transferred to the compound dilution plate and a 75 μL portion of the remaining supernatant is transferred to a 1.4 mL tube (Micronic). A 25 μL volume of DMSO is promptly added and the sample is submitted for concentration determination by HPLC, along with the stock solution of the compound in DMSO as a standard for concentration determination analysis.
HIV Reverse Transcriptase Assay (IC50)
The assay used to measure inhibition of HIV reverse transcriptase is as described in WO 2006/034583, pages 52-53, incorporated herein by reference, except that 1 mM of ATP was added to the reaction mixture.

[2] = system: HIV-1 replication in C8166 LTRluc cells; experiment: C8166 HIV-1 Luciferase Assay (EC50); format: cell-based; details: Human immunodeficiency virus 1, 72 h; assay of Example 68; C8166 LTRluc cells infected with HIV-1 at moi 0.005, 3 days
Protocol: as §1
C8166 HIV-1 Luciferase Assay (EC50)
The assay used to measure inhibition of HIV replication is as described in WO 2004/050643, pages 73-75, incorporated herein by reference, with the following modifications:
Serial dilutions of HIV-1 inhibitors are prepared in complete media from DMSO stock solutions. Eleven serial dilutions of desired concentration are prepared in a 1 mL deep well titer plate (96 wells). The 12th well contains complete media with no inhibitor and serves as the positive control. All samples contain the same concentration of DMSO (<0.1% DMSO). Inhibitor is added, to triplicate wells, of a 96 well tissue culture treated clear view black microtiter plate (Corning Costar catalogue #3904). The total volume per well is 200 μL of media containing the cells and inhibitor. The last row is reserved for uninfected C8166 LTRluc cells to serve as the background blank control and the first row is media alone.
Count C8166 LTRluc cells and place in a minimal volume of complete RPMI 1640 in a tissue culture flask (ex. 30×10^6 cells in 10 mL media/25 cm^2 flask). Infect cells with HIV-1 at a moi of 0.005. Incubate cells for 1.5 h at 37° C. on a rotating rack in a 5% CO2 incubator. Resuspend cells in complete RPMI to give a final concentration of 25,000-cells/well. Add cells to wells of 96 well microtiter plate containing inhibitors. Add 25,000 uninfected C8166-LTRluc cells/well in 200 μL complete RPMI to last row for background control. Incubate cells at 37° C. in 5% CO2 incubator for 3 days.
50 μL Steady Glo (luciferase substrate T1/2=5 hours Promega catalogue # E2520) is added to each well of the 96 well plate. The relative light units (RLU) of luciferase are determined using a luminescence plate reader. The calculated % inhibition values are used to determine EC50, slope factor (n) and maximum inhibition (Imax).

`O=c1nc(-c2ccccc2)c2oc3ccccc3c2n1CCN1CCCC1` [Compound 1001] gave an IC50 [1] of 2350 nM.

`CN1CCN(CC(=O)Nc2ccc(-c3nc(=O)n(C)c4c3oc3ccccc34)cc2)CC1` [Compound 1002] was tested, and the IC50 [1] was 11000 nM and the EC50 [2] was 15000 nM.

`COCCn1c(=O)nc(-c2ccc(NC(=O)CN(C)C)cc2)c2oc3ccccc3c21` [Compound 1004] showed an IC50 [1] of 1150 nM and an EC50 [2] of 3600 nM.

Work on `COCCn1c(=O)nc(-c2ccc(NC(=O)CN3CCOCC3)cc2)c2oc3ccccc3c21` [Compound 1005] yielded an IC50 [1] of 215 nM.

For `CCNCC(=O)Nc1ccc(-c2nc(=O)n(CCOC)c3c2oc2ccccc23)cc1` [Compound 1009], the IC50 [1] was 73 nM and the EC50 [2] was 675 nM.

Molecule `COCCn1c(=O)nc(-c2ccc(NC(=O)NCCN3CCCC3)cc2)c2oc3ccccc3c21` [Compound 1016] has an IC50 [1] of 107 nM and an EC50 [2] of 6800 nM.

With `COCCn1c(=O)nc(-c2ccc(OCCN(C)C)cc2)c2oc3ccccc3c21` [Compound 1036] the IC50 [1] was 633 nM and the EC50 [2] was 14000 nM.

Molecule `CCNCC(=O)Nc1ccc(-c2nc(=O)n(C)c3c2oc2ccccc23)cc1` [Compound 1051] has an IC50 [1] of 520 nM and an EC50 [2] of 980 nM.

`COCCn1c(=O)nc(-c2ccc(NC(=O)CN3CCCC3)c(OC)c2)c2oc3ccccc3c21` [Compound 1056] was tested, and the IC50 [1] was 2500 nM.

`COCCn1c(=O)nc(-c2ccc(N(C)CCN(C)C)nc2)c2oc3ccccc3c21` [Compound 1070] was tested, and the IC50 [1] was 310 nM and the EC50 [2] was 1200 nM.

Molecule `COCCn1c(=O)nc(-c2ccc(N3CCN(C(C)C)CC3)nc2)c2oc3ccccc3c21` [Compound 1073] has an IC50 [1] of 107 nM and an EC50 [2] of 720 nM.

Molecule `O=c1nc(-c2ccccc2)c2oc3ccc(Cl)cc3c2n1CCN1CCCC1` [Compound 2001] has an IC50 [1] of 593 nM and an EC50 [2] of 3700 nM.

`O=c1nc(-c2ccccc2)c2oc3ccc(Cl)cc3c2n1CCN1CCC(F)(F)C1` [Compound 2009] was tested, and the IC50 [1] was 323 nM and the EC50 [2] was 2900 nM.

`CCNCC(=O)Nc1ccc(-c2nc(=O)n(CCOC)c3c2oc2ccc(-c4cncs4)cc23)cc1` [Compound 2021] gave an IC50 [1] of 20 nM and an EC50 [2] of 200 nM.

For `CN1CCc2cc(-c3ccc4oc5c(-c6ccc(F)cc6)nc(=O)n(CCN6CCCC6C(N)=O)c5c4c3)ccc2C1` (centres unmarked) [Compound 2025], the IC50 [1] was 35 nM and the EC50 [2] was 52 nM.

Molecule `CC(=O)N(C)C1CCN(CCn2c(=O)nc(-c3ccccc3)c3oc4ccc(Br)cc4c32)C1` (centres unmarked) [Compound 2038] has an IC50 [1] of 250 nM and an EC50 [2] of 2900 nM.

For `CCNCC(=O)Nc1ccc(-c2nc(=O)n(CCOC)c3c2oc2ccc(-c4ccc5c(c4)N(C)CCC5)cc23)cc1` [Compound 2039], the IC50 [1] was 24 nM and the EC50 [2] was 440 nM.

With `CCNCC(=O)Nc1ccc(-c2nc(=O)n(CCOC)c3c2oc2ccc(-c4cccc5c4CCN(C)C5)cc23)cc1` [Compound 2115] the IC50 [1] was 1150 nM.

`COCCn1c(=O)nc(-c2ccc(N)cc2)c2oc3ccc(Br)cc3c21` [Compound 2133] was tested, and the IC50 [1] was 760 nM and the EC50 [2] was 4650 nM.

In the case of `COCCn1c(=O)nc(-c2ccc(NS(C)(=O)=O)cc2)c2oc3ccc(-c4ccc(CN(C)C)cc4)cc3c21` [Compound 2194], the IC50 [1] is reported as 395 nM and the EC50 [2] is reported as 1500 nM.

With `CN(C)Cc1ccc(-c2ccc3oc4c(-c5ccccc5)nc(=O)n(-c5ccccc5)c4c3c2)cc1` [Compound 2213] the IC50 [1] was 86 nM and the EC50 [2] was 235 nM.

`CN1CCN(c2ccc(-c3nc(=O)n(CCN4CCCC4)c4c3oc3ccc(Cl)cc34)cn2)CC1` [Compound 2232] showed an IC50 [1] of 22 nM and an EC50 [2] of 240 nM.

Molecule `CNC1CCN(c2ccc(-c3nc(=O)n(CCOC)c4c3oc3ccc(Cl)cc34)cn2)C1` (centres unmarked) [Compound 2254] has an IC50 [1] of 40 nM and an EC50 [2] of 210 nM.

Work on `CN1CCN(c2ccc(-c3nc(=O)n(C)c4c3oc3ccc(Br)cc34)cn2)CC1` [Compound 2257] yielded an IC50 [1] of 31 nM and an EC50 [2] of 190 nM.

`COCCn1c(=O)nc(-c2ccc(N3CCN(C)CC3)nc2)c2oc3ccc(Cl)cc3c21` [Compound 2260] gave an IC50 [1] of 75 nM and an EC50 [2] of 890 nM.

`CCNCc1nc2cc(-c3nc(=O)n(CCCOC)c4c3oc3ccc(Cl)cc34)ccc2n1C` [Compound 2273] gave an IC50 [1] of 8 nM and an EC50 [2] of 58 nM.

`CC(C)N1CCN(c2ccc(-c3nc(=O)n(CC(=O)N4CC[C@H](F)C4)c4c3oc3ccc(Cl)cc34)cn2)CC1` [Compound 2277] gave an IC50 [1] of 7 nM and an EC50 [2] of 92 nM.

Work on `CCCCCn1c(=O)nc(-c2ccc3c(c2)nc(C)n3C)c2oc3ccc(-c4cnn(C)c4)cc3c21` [Compound 2287] yielded an IC50 [1] of 5 nM and an EC50 [2] of 18 nM.

Molecule `CN(C)Cc1ccc(-c2ccc3oc4c(-c5ccccc5)nc(=O)n(CC(=O)NC5CC5)c4c3c2)cc1` [Compound 2310] has an IC50 [1] of 1000 nM.

`CN(C)Cc1ccc(-c2ccc3oc4c(c3c2)N(CC2CCCO2)S(=O)(=O)N=C4c2ccccc2)cc1` (centres unmarked) [Compound 3003] was tested, and the IC50 [1] was over 225 nM and the EC50 [2] was 950 nM.

With `COCCCN1c2c(oc3ccc(-c4ccc(CN(C)C)cc4)cc23)C(c2ccccc2)=NS1(=O)=O` [Compound 3004] the IC50 [1] was over 205 nM and the EC50 [2] was 520 nM.

For `O=C(O)Cn1c2ccc(Cl)cc2c2c1c(-c1ccccc1)nc(=O)n2CCN1CCCC1` [Compound 4001], the IC50 [1] was 280 nM and the EC50 [2] was 5800 nM.

With `COCCCN1CCN(c2ccc(-c3nc(=O)n(CCCOC)c4c3oc3ncccc34)cn2)CC1` [Compound 5001] the IC50 [1] was 60 nM and the EC50 [2] was 590 nM.

`COCCCn1c(=O)nc(-c2ccc(N3CCC(NCC(F)F)CC3)nc2)c2oc3ncc(-c4cnn(C)c4)cc3c21` [Compound 5004] gave an IC50 [1] of 14 nM.

With `COCCCn1c(=O)nc(-c2ccc(N3CCN(C(C)C)CC3)nc2)c2oc3cnccc3c21` [Compound 5019] the IC50 [1] was 25 nM and the EC50 [2] was 280 nM.

For `CCCCCn1c(=O)nc(-c2ccc(N3CCN(C)CC3)nc2)c2oc3ncc(C#N)cc3c21` [Compound 5024], the IC50 [1] was 6 nM and the EC50 [2] was 32 nM.

`COCCCn1c(=O)nc(-c2ccc(N3CCN(C)CC3)nc2)c2oc3ncc(-c4cncs4)cc3c21` [Compound 5028] gave an IC50 [1] of 4.1 nM and an EC50 [2] of 21 nM.
